This note sets out measurements from publication PMC4608580, “Synthesis and Evaluation of Biological Activity of Antimicrobial – Pro-Proliferative Peptide Conjugates” (PLoS ONE, 2015).

The test system of data set [1] is human primary dermal fibroblasts. In words: Cell proliferation assay (MTT). The data set is classed as cell-based. As to conditions: 72 h, serum-free DMEM. The method, then: Biopsies of healthy human skin were obtained aseptically from three donors (47–69 years old) undergoing circumcision after obtaining their written informed consent. All the procedures were approved by the Ethics Committee of Medical University of Gdansk (NKEBN/483/2011. Issued: 2011-12-19). The samples were washed several times with sterile PBS (Sigma-Aldrich, Germany) containing antibiotic (200 U/mL penicillin and 200 μg/mL streptomycin), after which, the subcutaneous tissue was cut off with a sharp blade. The resulting sheets were cut into small fragments, washed two times with sterile PBS and treated with 6 U/mL dispase II (BD, USA) overnight at 4°C to separate epidermis and dermis. The dermis was then digested with 1.0 mg/mL collagenase type I (from Clostridium histolyticum Sigma-Aldrich, Germany) for 2 hours at 37°C to isolate fibroblasts. Cells were used between the 2nd and 4th passage in all experiments.
(§1) In our study two kind of cells were used: immortalized human HaCaT keratinocytes (DKFZ Heidelberg, Germany) and primary dermal fibroblasts obtained from 3 healthy donors. Both types of the used cell lines were grown in Dulbecco's modified Eagle's medium (DMEM) (Sigma–Aldrich, Germany), that contained […] of glucose, […] of L-glutamine, sodium pyruvate and sodium bicarbonate. Additionally, medium was supplemented with 10% of FCS (fetal calf serum, Sigma-Aldrich, Germany), 100 U/mL of penicillin and 100 μg/mL streptomycin (Sigma-Aldrich, Germany). The cells were grown in culture dishes (BD, USA) under standard conditions in a humidified atmosphere with 5% CO2 at 37°C and medium was changed every 2 days.
The fibroblasts and keratinocytes were seeded at density of 4500 and 6000 cells per well, respectively, into 96-well plates suspended in a medium supplemented with 10% of FCS. After 24 h the media were exchanged with serum- and antibiotic- free DMEM and tested peptides dissolved in PBS were added yielding final concentration ranging from 1 to 50 μg/mL. Cells were incubated for the next 24 hours, when the medium was exchanged again and fresh portion of peptides (used at the same concentrations as previously) was added. Incubation was continued for the next 48 hours (the overall time of cell exposition to peptide was 72 h). […] After 15 min when the purple crystals of formazan were fully solubilized, absorbance was read at 570 nm with a plate reader. […]
Fig 1 Pro-proliferative activity of the tested peptides towards human keratinocytes (A) and fibroblasts (B). […] The data represents results of MTT assay expressed as the percentage of the cell viability in comparison to their control sample (cells incubated in serum-free DMEM without tested peptides), additional positive control corresponds to the cells incubated in the presence of 10% FCS. […]

Data set [2] can be described thus: Circular dichroism, alpha-helical content. The format is physicochemical. The note with it: CD, mean residue ellipticity at 222 nm (Eq 1), peptide 0.4 mg/ml in 30 mM SDS, room temperature. The procedure: Circullar dichroism spectra of analyzed compounds were recorded on a Jasco J-815 spectropolarimeter using a quartz cell of 1 mm path length between 195–260 nm at room temperature. Peptides at concentration of 0.4 mg/ml were dissolved in water or 30 mM SDS solution. SDS micelle system was used as the simplified model of negatively charged lipid membrane. On the basis of the obtained results the alpha-helical content was determined from the mean residue ellipticities at 222 nm according to Eq 1: %Helix=([θ]obs/([θ]helixx(1−2.57/l))x100, (1) where [θ] obs is the experimentally observed mean-residue ellipticity at 222 nm, [θ]helix is the theoretical ellipticity of peptide of infinite length with a 100% helix population, taken as -39 500 deg·cm^2/dmol, and l is the number of peptide bonds.
Circular dichroism method was applied to obtain a basic information about the secondary structure of the synthesized compounds (with the exception of CAR, CAR3, DAL, CTEN2) in two chemical environments, water and 30 mM SDS. As expected, all the tested compounds in water adopted a random-coil structure, while in the presence of 30 mM SDS most of them formed α-helices with characteristic negative minima around 208 and 220 nm. […] The examples of CD spectra for selected peptides could be seen in supporting information (Figure A in S1 File). On the basis of the experimentally obtained values of the mean residue ellipticities of peptides at 222 nm their alpha-helical content was calculated according to the Eq 1 (Table 1).

For data set [3], the system named is immortalized human HaCaT keratinocytes. In words: Cell proliferation assay (MTT). The data set is classed as cell-based. As to conditions: 72 h, serum-free DMEM; for Effect on HaCaT cell viability/proliferation (MTT), in words: whole range 1–50 μg/mL, vs. control without peptide, triplicate. The method, then:
as §1
The fibroblasts and keratinocytes were seeded at density of 4500 and 6000 cells per well, respectively, into 96-well plates suspended in a medium supplemented with 10% of FCS. After 24 h the media were exchanged with serum- and antibiotic- free DMEM and tested peptides dissolved in PBS were added yielding final concentration ranging from 1 to 50 μg/mL. Cells were incubated for the next 24 hours, when the medium was exchanged again and fresh portion of peptides (used at the same concentrations as previously) was added. Incubation was continued for the next 48 hours (the overall time of cell exposition to peptide was 72 h). At the end of the experiment cells were treated with 20 μL of MTT (5 mg/mL in PBS). After 3 h at 37°C under 5% CO2 medium was discarded and replaced by 6mM HCl in isopropanol. After 15 min when the purple crystals of formazan were fully solubilized, absorbance was read at 570 nm with a plate reader. The optical density reflects the level of cell viability as MTT is converted in purple formazan product only in the presence of viable mitochondria of the living cells.
Fig 1 Pro-proliferative activity of the tested peptides towards human keratinocytes (A) and fibroblasts (B). Cells were incubated for 72 hours in serum-free DMEM medium in the presence of peptides applied at concentrations of 1,10, 25 and 50 μg/mL, respectively. The data represents results of MTT assay expressed as the percentage of the cell viability in comparison to their control sample (cells incubated in serum-free DMEM without tested peptides), additional positive control corresponds to the cells incubated in the presence of 10% FCS. All experiments were performed independently in triplicate. *P < 0.05, **P < 0.01, ***P < 0.001 vs. control.
In order to evaluate a long-term effect of peptides, experiments were carried out for 72 hours. Before addition of the tested compounds, the cell medium was exchanged for the fresh one not containing any serum or antibiotic.

The subject of data set [4] is Staphylococcus epidermidis (PCM 2118). The data set is classed as cell-based. The note with it: PCM 2118, 24 h. The source says:
(§2) Escherichia coli (PCM 2057), Staphylococcus aureus (PCM 2054), Staphylococcus epidermidis (PCM 2118), Pseudomonas aeruginosa (PCM 499) were obtained from Polish Collection of Microorganisms. Fungi strains Candida albicans (CCM 8186), Candida glabrata (CCM 8270), Candida parapsilosis (CCM 8260), Candida krusei (CCM 8271), Candida tropicalis (CCM 8264) were acquired from Czech Collection of Microorganisms.
(§3) Luria-Bertani broth (LB) and Sabouraud Dextrose broth (SB) (Biocorp, Poland) were used for cultivation of bacteria and fungi strains, respectively. Antimicrobial activity of peptides was analyzed through determination of MIC (minimal inhibitory concentration) parameter according to the standard microdilution technique performed on 96-well plates. Mueller-Hinton broth (MHB) was used as the working medium for all bacterial strains, while in case of fungi it was additionally supplemented with 2% glucose.
(§4) Briefly, inoculum was prepared from freshly grown cultures of microorganisms being at their exponential phase of growth. Each well of 96-well plates containing 100 μL of serially diluted peptides in PBS (phosphate buffer saline) at concentration ranging from 2 to 250 μg/mL were inoculated with 100 μL of approximately 10^5 CFU/mL of bacterial suspension or about 2.5 x 10^3 CFU/mL of fungi suspended in a double concentrated Mueller-Hinton broth (supplemented with 2% glucose for Candida spps.). Then plates were incubated overnight at 37°C and absorbance was read at 590 nm after 24 h. Cultures without peptide were treated as positive control, while uninoculated Mueller-Hinton broth was defined as negative control. All measurements were run at least in triplicate.
(§5) All peptides were screened against the wide range of microorganisms, including Gram-negative, Gram-positive bacteria and fungi from Candida species (Table 2). Broth microdilution method for MIC determination was used as a standard procedure. All assays were performed on liquid Mueller-Hinton broth, which was additionally supplemented with 2% glucose when fungicidal activity towards Candida spps. was analyzed.

Data set [5] has as its system Escherichia coli (PCM 2057). The data set is classed as cell-based. As to conditions: PCM 2057, 24 h.
From the text: as §2, §3, §4, §5

The test system of data set [6] is Pseudomonas aeruginosa (PCM 499). The data set is classed as cell-based. The note with it: PCM 499, 24 h.
From the text: as §2, §3, §4, §5

For data set [7], the system named is Staphylococcus aureus (PCM 2054). The format is cell-based. As to conditions: PCM 2054, 24 h.
From the text: as §2, §3, §4, §5

Another data set deals with B. cereus. The data set is classed as cell-based. The note with it: 24 h. The method, then:
as §3, §4, §5

A further data set relates to HaCaT keratinocytes. Nature of the data set: Cell migration assay (in vitro scratch test). The format is cell-based, human. The note with it: 25 μg/mL, 24 h, serum-free DMEM, Mitomycin C 5 μg/mL, vs. control without peptide, three independent experiments. The method, then: Fibroblasts and keratinocytes were seeded (5x10^5 cells/well) in 6-well plates. When desired monolayer confluence was reached, cells were starved for 24 hours in serum-free DMEM. The monolayer was scratched then with 200μL-pipette tip. The floating cells and cell debris were removed by double washing in PBS, further replaced with a fresh serum-free medium. Wounded monolayers were incubated for the next 24 h in the presence of tested peptides used at concentration of 25 μg/mL and 5 μg/mL of Mitomycin C (Sigma Aldrich) to prevent proliferation. At the end of the experiment medium was removed and the cells were fixed with 3.7% PFA for 5 min, stained for the next 30 min with 0.05% crystal violet solution, washed several times with distilled water and the plates were left inverted for a couple of minutes to drain. The wounded areas were then photographed by means of Zeiss Observer D1 microscope equipped with camera AxioCam and analyzed with AxioVision software (Carl Zeiss, Germany). Migration activity of the cells treated with the tested peptides were expressed as the percentage of the wounded area with respect to the control probe (cell cultures without any of the peptide), assumed as 100%.
An in vitro scratch test was performed to investigate the effect of the analyzed compounds on keratinocytes and fibroblasts migration. Evaluation was based on the efficiency of the invasion of the monolayer cells to the prewounded area within 24 h after stimulation with the appropriate compound added at concetration of 25μg/mL.
Fig 2 Effect of the peptides on HaCaT keratinocytes and fibroblasts cell migration in the in vitro scratch test. HaCaT cells and fibroblasts were grown in 6-well plates until the 100% confluence was reached, then cells were starved for the next 12 hours in DMEM without 10% FCS and scratched once vertically with a 200μL pipette tip. After being washed two times with sterile PBS, a fresh portion of DMEM medium was added and cells were treated with the tested peptides applied at their optimal doses (25 μg/mL). Migration was analyzed after 24 hours by means of Zeiss Observer D1 microscope, wounding areas were analyzed with AxioVision software and expressed as the percentage of the wound width in comparison to the control sample (cells incubated in DMEM without FCS). Control+ FCS corresponds to the sample with cells incubated in the medium containing 10% FCS and was treated as the additional positive control. Data represent the mean ± SD of three independent experiments. *P < 0.05, **P < 0.01, ***P < 0.001 vs. control.

≈ marks a conversion by molar mass, not a printed value. Residues, ends and D or L forms follow the SMILES beside them.

`CC(C)C[C@H](NC(=O)CNC(=O)[C@@H](N)CCC(=O)O)C(=O)N[C@@H](CCC(=O)O)C(=O)N1CCC[C@H]1C(=O)NCC(=O)NCCOCCOCC(=O)N[C@@H](CCCCN)C(=O)N[C@@H](CCCCN)C(=O)N[C@H](C(=O)N[C@H](C(=O)N[C@@H](Cc1ccccc1)C(=O)N[C@@H](Cc1c[nH]c2ccccc12)C(=O)N[C@H](C(=O)N[C@@H](CCCCN)C(=O)N[C@@H](Cc1ccccc1)C(=O)N[C@@H](CCCCN)C(N)=O)C(C)C)C(C)C)C(C)C` [CTEN2-PEG-KSLW] (HELM PEPTIDE1{E.G.L.E.P.G.[O=C(COCCOCCN[*:1])[*:2]].K.K.V.V.F.W.V.K.F.K.[am]}$$$$V2.0; N-terminus assumed): the “Effect on fibroblast cell count (MTT), in words” value in [1] (dose-response relationship, peptide at 50 μg/mL) was “highest cell count”. Moreover, in [2], the α-helicity was found to be 27%. Moreover, the “Effect on HaCaT proliferation (MTT), in words” value in [3] (peptide at 1–25 μg/mL) is listed as “noticeable pro-proliferatory activity”. Moreover, the “MIC S. epidermidis” value in [4] worked out at 7.8 µg/mL (≈ 3.83 µM). Besides, the “MIC E.coli” value in data set [5] is more than 125 µg/mL. Besides, in [6], the “MIC P. aeruginosa” value was more than 125 µg/mL. For the same molecule, the “MIC S.aureus” value in data set [7] was more than 125 µg/mL. Also, in the data set on B. cereus, the “MIC B. cereus” value was more than 125 µg/mL.
Take EGLEPG [CTEN2]: the “Effect on fibroblast cell count (MTT), in words” value in [1] (peptide at 1–25 μg/mL) is recorded as “Increased cell count”. Moreover, the “Effect on HaCaT cell viability/proliferation (MTT), in words” value in data set [3] is “non-toxic”.
For carnosine [reference compound], in the data set on HaCaT keratinocytes, the “Effect on keratinocyte migration (scratch test), in words” value is “best results”. For the same molecule, the “Effect on HaCaT cell viability/proliferation (MTT), in words” value in data set [3] is on record as “non-toxic”.
